The text below walks through data of PMC7926623 (Marine Drugs, 2021).

For this experiment, the target named is rat α6/α3β2β3 nAChR (Rattus norvegicus, UniProt P04757+P12390+P43143). The class given is cell-based.
Sequence of rat α6/α3β2β3 nAChR (P04757 whole entry, looked up): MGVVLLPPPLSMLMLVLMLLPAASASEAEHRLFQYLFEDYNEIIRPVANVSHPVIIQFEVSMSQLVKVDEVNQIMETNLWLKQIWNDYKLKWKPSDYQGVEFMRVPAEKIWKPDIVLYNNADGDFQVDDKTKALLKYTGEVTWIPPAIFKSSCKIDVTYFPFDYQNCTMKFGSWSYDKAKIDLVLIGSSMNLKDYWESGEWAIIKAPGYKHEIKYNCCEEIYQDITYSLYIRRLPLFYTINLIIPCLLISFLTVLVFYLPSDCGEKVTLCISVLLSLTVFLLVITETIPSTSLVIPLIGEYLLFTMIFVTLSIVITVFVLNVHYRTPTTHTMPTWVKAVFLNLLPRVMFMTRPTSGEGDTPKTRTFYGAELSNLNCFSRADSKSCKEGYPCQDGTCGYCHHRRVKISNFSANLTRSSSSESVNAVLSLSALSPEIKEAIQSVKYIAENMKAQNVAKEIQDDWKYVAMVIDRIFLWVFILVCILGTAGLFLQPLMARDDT
Sequence of rat α6/α3β2β3 nAChR (P12390 whole entry, looked up): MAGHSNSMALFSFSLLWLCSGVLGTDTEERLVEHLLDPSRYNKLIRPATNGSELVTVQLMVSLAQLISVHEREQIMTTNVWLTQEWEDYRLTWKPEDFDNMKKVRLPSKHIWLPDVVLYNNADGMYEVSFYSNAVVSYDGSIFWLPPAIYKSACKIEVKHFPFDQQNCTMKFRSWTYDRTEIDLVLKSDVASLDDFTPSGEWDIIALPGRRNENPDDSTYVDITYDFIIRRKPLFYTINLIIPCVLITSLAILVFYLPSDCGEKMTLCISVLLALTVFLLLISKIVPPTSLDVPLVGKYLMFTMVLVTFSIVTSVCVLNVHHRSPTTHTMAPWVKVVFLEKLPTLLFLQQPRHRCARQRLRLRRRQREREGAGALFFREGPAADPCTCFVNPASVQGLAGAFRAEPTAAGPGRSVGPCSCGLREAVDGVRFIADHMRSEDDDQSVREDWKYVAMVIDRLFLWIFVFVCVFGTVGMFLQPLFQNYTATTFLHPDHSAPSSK
Sequence of rat α6/α3β2β3 nAChR (P43143 whole entry, looked up): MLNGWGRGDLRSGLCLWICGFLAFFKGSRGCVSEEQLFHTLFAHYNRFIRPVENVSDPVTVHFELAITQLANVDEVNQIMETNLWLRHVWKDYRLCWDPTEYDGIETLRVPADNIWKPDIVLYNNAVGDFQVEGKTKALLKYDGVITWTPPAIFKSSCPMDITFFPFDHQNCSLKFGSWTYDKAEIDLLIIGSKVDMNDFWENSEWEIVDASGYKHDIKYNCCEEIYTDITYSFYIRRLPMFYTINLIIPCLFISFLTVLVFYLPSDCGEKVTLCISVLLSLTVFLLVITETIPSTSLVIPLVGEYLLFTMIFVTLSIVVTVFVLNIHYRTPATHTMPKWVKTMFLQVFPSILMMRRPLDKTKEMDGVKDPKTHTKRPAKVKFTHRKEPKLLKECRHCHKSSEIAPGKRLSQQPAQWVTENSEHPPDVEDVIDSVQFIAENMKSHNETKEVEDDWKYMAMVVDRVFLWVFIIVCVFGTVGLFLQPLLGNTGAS

Turning to α-Conotoxin TxIB, the “inhibition on α6/α3β2β3 nAChR” value is on record as “about 88%”.
